Tests used:
[1] = test system: NOX4 gene; experiment: NOX4 mRNA expression in glomeruli of STZ-eNOS−/− mice (RT-PCR); format: in vivo; conditions: FIG. 5
Source text: The detection method of Western Blot and mRNA used in the present embodiment is a detection method commonly used by person skilled in the art, and the specific detection method is described in “Molecular Biology Laboratory Manual” (People's Military Medical Press, published in 2011 Jun. 1). Further, the mRNA of the glomeruli was extracted and subjected to RT-PCR.

[2] = molecular target: T1, Keratin, type II cytoskeletal 5 (Homo sapiens, UniProt P13647); experiment: DARTS mass spectrometry of 293T lysate after ATG; format: binding; conditions: ATG 300 μM, pronase 1:1000, K2C5_HUMAN
T1 construct: endogenous in cells; host or cells: 293T
T1 sequence (P13647 1-590): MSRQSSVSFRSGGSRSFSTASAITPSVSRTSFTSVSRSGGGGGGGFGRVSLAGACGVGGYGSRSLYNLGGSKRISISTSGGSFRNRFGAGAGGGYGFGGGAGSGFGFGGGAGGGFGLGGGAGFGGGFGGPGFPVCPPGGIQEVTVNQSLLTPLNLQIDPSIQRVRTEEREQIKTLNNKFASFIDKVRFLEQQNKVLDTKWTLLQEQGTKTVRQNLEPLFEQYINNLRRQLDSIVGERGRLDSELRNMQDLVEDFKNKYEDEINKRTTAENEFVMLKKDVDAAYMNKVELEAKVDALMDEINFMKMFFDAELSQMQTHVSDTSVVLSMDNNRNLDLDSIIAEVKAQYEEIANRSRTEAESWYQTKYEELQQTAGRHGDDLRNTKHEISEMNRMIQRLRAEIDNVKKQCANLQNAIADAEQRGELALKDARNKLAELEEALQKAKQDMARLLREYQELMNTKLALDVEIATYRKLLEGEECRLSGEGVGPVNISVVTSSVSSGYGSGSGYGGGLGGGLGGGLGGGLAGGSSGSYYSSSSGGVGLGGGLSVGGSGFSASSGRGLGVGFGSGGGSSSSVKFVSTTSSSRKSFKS
Procedure: (§1) 293T cells were digested with M-PER mammalian protein extraction buffer (78501 ThermoFisher) and phosphatase inhibitor (50 mM NaF, 10 mM β-glycerophosphate, 5 mM sodium pyrophosphate, 2 mM Na3VO4); and the protein concentration is determined by Bradford method (500-0006 Bio-rad). ATG was either added or not in the cell lysate. If added, the concentration of ATG was 300 μM. The cells were incubated at room temperature for 1 h. The cells were then lysed by incubating for 20 minutes at room temperature with different concentrations of pronase at 1:1000 (10165921001, Roche). The two groups of lysates are subjected to mass spectrometry and then compared.

[3] = molecular target: T2, Keratin, type I cytoskeletal 17 (Homo sapiens, UniProt Q04695); experiment: DARTS mass spectrometry of 293T lysate after ATG; format: binding; conditions: ATG 300 μM, pronase 1:1000, K1C17_HUMAN
T2 construct: endogenous in cells; host or cells: 293T
T2 sequence (Q04695 1-432): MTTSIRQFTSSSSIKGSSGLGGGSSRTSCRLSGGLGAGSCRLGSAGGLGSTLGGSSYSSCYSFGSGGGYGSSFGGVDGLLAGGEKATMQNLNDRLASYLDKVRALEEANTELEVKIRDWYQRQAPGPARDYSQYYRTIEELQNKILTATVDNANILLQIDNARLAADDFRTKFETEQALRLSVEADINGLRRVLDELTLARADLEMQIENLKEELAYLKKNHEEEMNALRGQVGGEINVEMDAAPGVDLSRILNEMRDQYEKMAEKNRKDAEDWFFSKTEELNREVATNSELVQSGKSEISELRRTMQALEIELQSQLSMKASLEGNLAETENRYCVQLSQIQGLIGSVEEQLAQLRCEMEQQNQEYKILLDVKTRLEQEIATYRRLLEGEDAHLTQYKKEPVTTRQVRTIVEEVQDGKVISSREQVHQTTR
Procedure: as §1

[4] = molecular target: T3, Keratin, type II cytoskeletal 6A (Homo sapiens, UniProt P02538); experiment: DARTS mass spectrometry of 293T lysate after ATG; format: binding; conditions: ATG 300 μM, pronase 1:1000, K2C6A_HUMAN
T3 construct: endogenous in cells; host or cells: 293T
T3 sequence (P02538 2-564 limits assumed): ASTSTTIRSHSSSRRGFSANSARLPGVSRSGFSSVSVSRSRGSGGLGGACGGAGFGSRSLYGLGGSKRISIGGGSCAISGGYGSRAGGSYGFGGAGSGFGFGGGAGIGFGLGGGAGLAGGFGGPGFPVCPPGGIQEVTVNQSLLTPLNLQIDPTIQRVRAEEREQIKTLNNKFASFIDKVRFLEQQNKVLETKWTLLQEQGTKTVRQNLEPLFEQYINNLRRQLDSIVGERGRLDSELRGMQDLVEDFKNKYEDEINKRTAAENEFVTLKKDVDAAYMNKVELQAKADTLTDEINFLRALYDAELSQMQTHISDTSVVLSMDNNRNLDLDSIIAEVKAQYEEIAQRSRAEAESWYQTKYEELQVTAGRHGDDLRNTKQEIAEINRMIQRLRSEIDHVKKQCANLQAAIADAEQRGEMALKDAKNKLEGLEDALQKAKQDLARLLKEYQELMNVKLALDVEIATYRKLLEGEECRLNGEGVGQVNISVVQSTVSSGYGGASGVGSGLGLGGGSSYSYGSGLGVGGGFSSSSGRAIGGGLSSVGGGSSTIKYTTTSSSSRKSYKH
Procedure: as §1

[5] = molecular target: T4, Heterogeneous nuclear ribonucleoprotein H2 (Homo sapiens, UniProt P55795); experiment: DARTS mass spectrometry of 293T lysate after ATG; format: binding; conditions: ATG 300 μM, pronase 1:1000, HNRH2_HUMAN
T4 construct: endogenous in cells; host or cells: 293T
T4 sequence (P55795 1-449): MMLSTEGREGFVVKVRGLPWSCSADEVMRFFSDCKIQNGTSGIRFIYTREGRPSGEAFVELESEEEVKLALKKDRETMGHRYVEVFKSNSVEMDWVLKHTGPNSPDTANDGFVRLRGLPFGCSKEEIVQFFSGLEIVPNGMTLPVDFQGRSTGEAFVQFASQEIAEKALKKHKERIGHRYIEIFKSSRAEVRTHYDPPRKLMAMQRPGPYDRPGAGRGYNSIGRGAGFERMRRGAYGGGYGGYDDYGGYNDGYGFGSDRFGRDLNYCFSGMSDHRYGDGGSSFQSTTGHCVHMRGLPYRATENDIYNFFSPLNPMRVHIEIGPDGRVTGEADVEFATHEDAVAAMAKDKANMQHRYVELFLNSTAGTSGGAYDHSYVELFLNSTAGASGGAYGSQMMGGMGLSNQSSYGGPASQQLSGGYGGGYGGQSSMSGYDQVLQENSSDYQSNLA
Procedure: as §1

[6] = test system: NOX4 mRNA; experiment: NOX4 mRNA expression in mouse primary endothelial cells under high glucose (Realtime PCR); format: cell-based; conditions: FIG. 9
Source text: The detection method of Western Blot and mRNA used in the present embodiment is a detection method commonly used by person skilled in the art, and the specific detection method is described in “Molecular Biology Laboratory Manual” (People's Military Medical Press, published in 2011 Jun. 1). 3.2 Western blot and Realtime PCR confirmed that ATG could inhibit the overexpression of NOX4 in mouse's primary endothelial cells. The dose of 1 and 10 μmol/L corresponds to the last two bands.

In the case of COc1cc(C[C@H]2C(=O)OC[C@@H]2Cc2ccc(OC)c(OC)c2)ccc1O [ATG, Arctigenin], the “mRNA expression of NOX4 gene in glomeruli” value [1] is reported as “significantly reduced”, the “Ratio (ATG/DMSO)” value [2] is reported as 4.7 and the “Spectral Count (ATG)” value [2] is reported as 7. The “Ratio (ATG/DMSO)” value [3] was 4.7, the “Spectral Count (ATG)” value [3] was 7 and the “Ratio (ATG/DMSO)” value [4] was 5.2. The “Spectral Count (ATG)” value [4] was 8, the “Ratio (ATG/DMSO)” value [5] was 6.8 and the “Spectral Count (ATG)” value [5] was 12. The “overexpression of NOX4 mRNA induced by high glucose” value [6] was “inhibited the overexpression of NOX4 mRNA”.
